Reference: patent US20020037902A1 (priority 2000, published 2002)

How the values were obtained:
oligodendrocytes [1] = assay: Kainate-induced death in cultures enriched with oligodendrocytes, counting of living Gal-C (+) cells; format: cell-based, Wistar rats; settings: 48 hours
Procedure: Oligodendrocytes were obtained from primary glial cultures of spinal cords according to the slightly modified method described by Saneto et al. (Neurochemistry, a Practical Approach, IRL Press, oxford-Washington, D.C., p 27-63 (1987)). Spinal cords from 1-day old Wistar rats were dissected under sterile conditions and separated from the meninges. Five to ten spinal cords were transferred into PBS (phosphate-buffered saline: NaCl 137 mM, KCl 2.68 mM, Na2HPO4 6.45 mM, KH2PO4 1.47 mM) to which 0.25% of trypsin was added. The enzymatic treatment was stopped by addition of Dubelco's modified Eagle's medium (DMEM) to which 10% of fetal bovine serum was added (FBS). Another dissolution step was carried out by means of a 1 ml pipette, and the cell suspension was filtered. The cells were collected by centrifugation and plated at a density of 1.5−2×10^6 cells/25 cm^2 of culture medium in Dubelco's modified Eagle's medium (DMEM) to which 10% of fetal bovine serum was added. After 3 days in vitro, the cultures were fed daily. When a visible monolayer was obtained, the cultures were stirred for 2 hours at 37° C. at 250 rpm, the culture medium was removed, and the flasks were again stirred for 22 hours. The cell-containing medium was incubated at 37° C. in petri dishes for 1 hour in order for the microglia to become attached to the plastic. The oligodendrocytes were collected by centrifugation, plated at a density of 1.6×10^6/cm^2 and maintained in DMEM containing 10% FBS for 1 or 2 days. The medium was then replaced with L15 medium to which sodium bicarbonate (22 mM), conalbumin (0.1 mg/ml), putrescine (0.1 mM), insulin (5 μg/ml), sodium selenite (31 nM), glucose (20 mM), progesterone (21 nM), penicillin (100 IU/ml), streptomycin (100 μg/ml), and horse serum (2%) were added. The oligodendrocytes rapidly differentiated within 24 to 48 hours into a mature and immature phenotype.
(§1) After 48 hours, measured from the start of treatment, the living oligodendrocytes were counted.
The number of Gal-C (+) oligo-dendrocytes were divided for 2 separate counts of the labeled cells in at least 12 fields of 0.63 mm^2 under a 400X microscope. The values were expressed as the number of cells per cm^2 or as the percentage of the control.
The statistical analyses were carried out using the Student's test (t-test).
The cultures of oligodendrocytes were exposed to concentrations of 0.1 to 1 mM kainate for 48 hours.

oligodendrocytes [2] = assay: Test 3: protective effect of riluzole on oligodendrocyte death induced by kainate; format: cell-based, Wistar rats; settings: Kainate 1000 alone (no riluzole), 48 hours
Procedure: Oligodendrocytes were obtained from primary glial cultures of spinal cords according to the slightly modified method described by Saneto et al. (Neurochemistry, a Practical Approach, IRL Press, oxford-Washington, D.C., p 27-63 (1987)). Spinal cords from 1-day old Wistar rats were dissected under sterile conditions and separated from the meninges. Five to ten spinal cords were transferred into PBS (phosphate-buffered saline: NaCl 137 mM, KCl 2.68 mM, Na2HPO4 6.45 mM, KH2PO4 1.47 mM) to which 0.25% of trypsin was added. The enzymatic treatment was stopped by addition of Dubelco's modified Eagle's medium (DMEM) to which 10% of fetal bovine serum was added (FBS). Another dissolution step was carried out by means of a 1 ml pipette, and the cell suspension was filtered. The cells were collected by centrifugation and plated at a density of 1.5−2×10^6 cells/25 cm^2 of culture medium in Dubelco's modified Eagle's medium (DMEM) to which 10% of fetal bovine serum was added. After 3 days in vitro, the cultures were fed daily. […]
as §1
The number of Gal-C (+) oligo-dendrocytes were divided for 2 separate counts of the labeled cells in at least 12 fields of 0.63 mm^2 under a 400X microscope. The values were expressed as the number of cells per cm^2 or as the percentage of the control. […]

Q: Which “Number of oligodendrocytes % relative to the control ± standard deviation” value (oligodendrocytes [1]; kainate 0.01 mM) does the source give for C=C(C)[C@H]1CN[C@H](C(=O)O)[C@H]1CC(=O)O [Kainate] here?
A: 108.2 ± 25.2 % relative to the control

Q: What about the “Number of oligodendrocytes % relative to the control ± standard deviation” value (oligodendrocytes [1]; kainate 0.1 mM) of the same compound?
A: 76.3 ± 27.9 % relative to the control

Q: And the “Number of oligodendrocytes % relative to the control ± standard deviation” value (oligodendrocytes [1]; kainate 0.5 mM)?
A: 25.3 ± 9.3 % relative to the control

Q: And the “Number of oligodendrocytes % relative to the control ± standard deviation” value (oligodendrocytes [1]; kainate 1 mM)?
A: 22.9 ± 7.1 % relative to the control

Q: And the “Induction of death of the oligodendrocytes through apoptosis” value (oligodendrocytes [1]; kainate at doses of from about 0.1 mM to about 1 mM)?
A: strongly induced death of the oligodendrocytes through apoptosis

Q: What about the “Number of oligodendrocytes % relative to the control ± standard deviation” value (oligodendrocytes [2]) of the same compound?
A: 22.9 ± 7.1 % relative to the control
